This note sets out measurements from US7795261B2, “Substituted 1-piperidin-4-yl-4-pyrrolidin-3-yl-piperazine derivatives and their use as neurokinin antagonists” (Janssen Pharmaceutica NV, priority 2002, dated 2010).

Type in all cases: cell-based
For one experiment, the target named is NK1 (Homo sapiens, UniProt P25103). As to the kind of experiment: Signal transduction (ST), intracellular Ca++ (FLIPR), NK1 antagonistic activity. The note with it: read-out: pIC50 NK1 (converted). Put shortly: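 Confluent cells loaded with 2 μM Fluo3 (1 h, 37 °C, probenecid), preincubated 20 min at RT with antagonist concentration range, then agonist added. Peak Ca++ transient read by FLIPR in Krebs buffer pH 7.4; IC50 by non-linear regression.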
Sequence of NK1 (P25103 whole entry): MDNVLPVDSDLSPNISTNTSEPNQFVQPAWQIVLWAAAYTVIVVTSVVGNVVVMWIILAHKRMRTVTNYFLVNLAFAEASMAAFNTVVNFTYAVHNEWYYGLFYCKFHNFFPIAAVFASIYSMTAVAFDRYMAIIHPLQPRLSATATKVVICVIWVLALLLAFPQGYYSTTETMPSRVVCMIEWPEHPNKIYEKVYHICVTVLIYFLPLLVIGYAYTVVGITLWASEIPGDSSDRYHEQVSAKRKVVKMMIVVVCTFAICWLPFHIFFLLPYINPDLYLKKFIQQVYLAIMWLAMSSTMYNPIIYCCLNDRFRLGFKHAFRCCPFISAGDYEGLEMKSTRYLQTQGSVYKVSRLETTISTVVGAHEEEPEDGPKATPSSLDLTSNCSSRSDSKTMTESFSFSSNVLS

The target of a further experiment is T1, NK2 (Homo sapiens, UniProt P21452).
T1 sequence (P21452 1-398): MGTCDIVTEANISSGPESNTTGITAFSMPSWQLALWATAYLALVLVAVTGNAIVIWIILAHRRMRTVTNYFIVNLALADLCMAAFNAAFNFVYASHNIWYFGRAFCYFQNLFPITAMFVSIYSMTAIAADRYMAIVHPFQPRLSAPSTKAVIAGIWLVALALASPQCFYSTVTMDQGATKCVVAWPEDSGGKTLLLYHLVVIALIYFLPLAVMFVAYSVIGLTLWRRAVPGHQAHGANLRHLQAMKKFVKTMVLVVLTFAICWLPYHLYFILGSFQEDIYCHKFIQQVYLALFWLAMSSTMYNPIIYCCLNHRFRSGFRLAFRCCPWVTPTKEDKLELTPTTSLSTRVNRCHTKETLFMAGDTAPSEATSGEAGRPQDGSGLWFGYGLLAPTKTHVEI
As to the kind of experiment: Signal transduction (ST), intracellular Ca++ (FLIPR), NK2. The following applies: read-out: pIC50 NK2 (converted).

The next experiment has as its target T2, NK3 (Homo sapiens, UniProt P29371).
T2 sequence (P29371 1-465): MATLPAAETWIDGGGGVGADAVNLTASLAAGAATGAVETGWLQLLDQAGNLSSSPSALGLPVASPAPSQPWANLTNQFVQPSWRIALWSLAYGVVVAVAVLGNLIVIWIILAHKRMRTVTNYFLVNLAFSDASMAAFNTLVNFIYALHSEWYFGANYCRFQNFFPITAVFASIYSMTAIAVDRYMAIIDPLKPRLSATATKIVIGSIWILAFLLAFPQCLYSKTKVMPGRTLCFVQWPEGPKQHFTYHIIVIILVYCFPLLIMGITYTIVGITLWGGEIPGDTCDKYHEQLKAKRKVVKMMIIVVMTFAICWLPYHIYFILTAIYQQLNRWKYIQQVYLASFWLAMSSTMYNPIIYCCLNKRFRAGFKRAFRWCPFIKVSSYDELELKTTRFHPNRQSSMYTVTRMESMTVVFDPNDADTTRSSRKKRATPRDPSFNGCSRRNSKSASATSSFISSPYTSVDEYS
As to the kind of experiment: Signal transduction (ST), intracellular Ca++ (FLIPR), NK3. The following applies: read-out: pIC50 NK3 (converted).

For the molecule `O=C(c1c(Cl)cccc1Cl)N1CCC(N2CCN([C@H]3CCN(C(=O)c4cc(C(F)(F)F)cc(C(F)(F)F)c4)[C@H](Cc4ccccc4)C3)CC2)C1` (stereo partly drawn) [Compound 169], the IC50 was 12.6 nM at NK1, 2.51 µM on NK2 and 251 nM on NK3.
The matching figures for `COc1ccc(C(=O)N2CCC(N3CCN([C@H]4CCN(C(=O)c5cc(C(F)(F)F)cc(C(F)(F)F)c5)[C@H](Cc5ccccc5)C4)CC3)C2)s1` (stereo partly drawn) [Compound 350]: 12.6 nM, 5.01 µM and 5010 nM.
The matching figures for `O=C(c1cccs1)N1CC[C@H](N2CCN([C@H]3CCN(C(=O)c4cc(C(F)(F)F)cc(C(F)(F)F)c4)[C@H](Cc4ccccc4)C3)CC2)C1` [Compound 322]: 7.94 nM, 3.98 µM and 631 nM.
The matching figures for `O=C(c1cc(F)ccc1F)N1CCC(N2CCN([C@H]3CCN(C(=O)c4cc(C(F)(F)F)cc(C(F)(F)F)c4)[C@H](Cc4ccccc4)C3)CC2)C1` (stereo partly drawn) [Compound 21]: 12.6 nM, 5.01 µM and 398 nM.
As to `O=C(c1cc(C(F)(F)F)cc(C(F)(F)F)c1)N1CC[C@H](N2CCN(C3CCN(C(CO)c4cccs4)C3)CC2)C[C@H]1Cc1ccccc1` (stereo partly drawn) [Compound 319], the IC50 at NK1 is 31.6 nM; at NK2 it was 5.01 µM; on NK3, 3160 nM.
For `CC(C)NC(=O)N1CCC(N2CCN([C@H]3CCN(C(=O)c4cc(C(F)(F)F)cc(C(F)(F)F)c4)[C@H](Cc4ccccc4)C3)CC2)C1` (stereo partly drawn) [Compound 293], in that order: 15.8 nM, 6.31 µM and 5010 nM.
The matching figures for `N#CN=C(N1CCOCC1)N1CCC(N2CCN([C@H]3CCN(C(=O)c4cc(C(F)(F)F)cc(C(F)(F)F)c4)[C@H](Cc4ccccc4)C3)CC2)C1` (stereo partly drawn) [Compound 371]: 15.8 nM, 7.94 µM and 5010 nM.
For `O=C(c1cccs1)N1CC[C@@H](N2CCN([C@H]3CCN(C(=O)c4cc(C(F)(F)F)cc(C(F)(F)F)c4)[C@H](Cc4ccccc4)C3)CC2)C1` [Compound 321], in that order: 12.6 nM, 3.16 µM and 251 nM.
As for `O=C(c1sccc1CCOCc1ccccc1)N1CCC(N2CCN([C@H]3CCN(C(=O)c4cc(C(F)(F)F)cc(C(F)(F)F)c4)[C@H](Cc4ccccc4)C3)CC2)C1` (stereo partly drawn) [Compound 361], the IC50 is 79.4 nM on NK1, 1 µM on NK2 and 631 nM at NK3.
Take `COc1cccc(S(=O)(=O)N2CCC(N3CCN([C@H]4CCN(C(=O)c5cc(C(F)(F)F)cc(C(F)(F)F)c5)[C@H](Cc5ccccc5)C4)CC3)C2)c1` (stereo partly drawn) [Compound 347]: the figures for the IC50 on NK1, on NK2 and on NK3 were 20 nM, 0.631 µM and 2510 nM, respectively.
For `N#Cc1ccc(NC(=O)N2CCC(N3CCN([C@H]4CCN(C(=O)c5cc(C(F)(F)F)cc(C(F)(F)F)c5)[C@H](Cc5ccccc5)C4)CC3)C2)cc1` (stereo partly drawn) [Compound 283], in that order: 25.1 nM, 3.98 µM and 2510 nM.
Take `O=C(C1CC1)N1CCC(N2CCN(C3CCN(C(=O)c4cc(C(F)(F)F)cc(C(F)(F)F)c4)C(Cc4cc(F)cc(F)c4)C3)CC2)C1` (stereo not drawn) [Compound 340]: the values for the IC50 at NK1, on NK2 and on NK3 were 50.1 nM, 6.31 µM and 6310 nM, respectively.
For `O=C(c1ccsc1)N1CCC(N2CCN(C3CCN(C(=O)c4cc(C(F)(F)F)cc(C(F)(F)F)c4)C(Cc4cc(F)cc(F)c4)C3)CC2)C1` (stereo not drawn) [Compound 337], in that order: 39.8 nM, 3.16 µM and 1260 nM.
On to `O=C(C(O)c1ccccc1)N1CCC(N2CCN([C@H]3CCN(C(=O)c4cc(C(F)(F)F)cc(C(F)(F)F)c4)[C@H](Cc4ccccc4)C3)CC2)C1` (stereo partly drawn) [Compound 275], for which the IC50 at NK1 was 10 nM; on NK2, 2.51 µM; at NK3, 5010 nM.
For `O=C(c1cnccn1)N1CC[C@@H](N2CCN([C@H]3CCN(C(=O)c4cc(C(F)(F)F)cc(C(F)(F)F)c4)[C@H](Cc4ccc(Cl)c(Cl)c4)C3)CC2)C1` [Compound 286], in that order: 6.31 nM, 1 µM and 398 nM.
The matching figures for `COc1ccc(NC(=NC#N)N2CCC(N3CCN([C@H]4CCN(C(=O)c5cc(C(F)(F)F)cc(C(F)(F)F)c5)[C@H](Cc5ccccc5)C4)CC3)C2)cc1` (stereo partly drawn) [Compound 355]: 15.8 nM, 5.01 µM and 6310 nM.
Regarding `O=C(c1cccs1)N1CCC(N2CCN(C3CCN(C(=O)c4cc(C(F)(F)F)cc(C(F)(F)F)c4)C(Cc4ccc(F)c(F)c4)C3)CC2)C1` (single isomer, unassigned) [Compound 254], the IC50 is 10 nM on NK1, 0.251 µM at NK2 and 501 nM at NK3.
For `CC(C)(C)C(=O)N1CCC(N2CCN(C3CCN(C(=O)c4cc(C(F)(F)F)cc(C(F)(F)F)c4)C(Cc4ccc(F)c(F)c4)C3)CC2)C1` (single isomer, unassigned) [Compound 364], in that order: 7.94 nM, 2 µM and 631 nM.
The matching figures for `Cc1ccc(C(=O)N2CCC(N3CCN([C@H]4CCN(C(=O)c5cc(C(F)(F)F)cc(C(F)(F)F)c5)[C@H](Cc5ccccc5)C4)CC3)C2)s1` (stereo partly drawn) [Compound 43]: 25.1 nM, 7.94 µM and 631 nM.
For `O=C(c1cc(C(F)(F)F)cc(C(F)(F)F)c1)N1CC[C@H](N2CCN(C3CCN(S(=O)(=O)c4ccccc4O)C3)CC2)C[C@H]1Cc1ccccc1` (stereo partly drawn) [Compound 307], in that order: 15.8 nM, 1.26 µM and 1260 nM.
